Source: ChEMBL document CHEMBL4396960, “Optimization of 1,3-disubstituted urea-based inhibitors of Zika virus infection” (Bioorg Med Chem Lett, 2019)

Experiments:
Zika virus [1] = test: Antiviral activity against Zika virus infected in human A549 cells assessed as reduction in viral titer incubated for 48 hrs by plaque assay; type: functional, organism-based; details: A549, 48 h
A549 [2] = test: Cytotoxicity against human A549 cells assessed as reduction in cell viability at <= 1 uM by MTT assay; type: cell-based
A549 [3] = test: Cytotoxicity against human A549 cells assessed as reduction in cell viability at > antiviral IC50 by MTT assay; type: cell-based
Zika virus [4] = test: Potency index, ratio of ASN 07115873 to compound IC50 for Antiviral activity against Zika virus infected in human A549 cells; type: functional

SMILES	IC50 (Zika virus [1])	Activity (A549 [2])	Activity (A549 [3])	Ratio IC50 (Zika virus [4])
C=CCSc1nc(NC(=S)Nc2ccc(Cl)c(C(F)(F)F)c2)ns1	233 nM	Non-Toxic	>= 50%	
C=CCNc1nc(NC(=O)Nc2ccc(I)cc2)ns1	0.1 nM	Non-Toxic	>= 50%	
C=CCSc1nnc(NC(=O)Nc2ccc(Br)cc2C(F)(F)F)s1	9100 nM			
C=CCSc1nsc(NC(=S)Nc2ccc(Br)cc2)n1	2100 nM	Non-Toxic	>= 50%	
C#CCSc1nsc(NC(=O)Nc2ccc(Cl)cc2)n1	1.4 nM	Non-Toxic	>= 50%	
C=CCNc1nc(NC(=O)Nc2ccc(Cl)cc2)ns1	0.0851 nM	Non-Toxic	>= 50%	2.2
O=C(Nc1ccc(Cl)c(C(F)(F)F)c1)Nc1nnc(S)s1	0.982 nM			
C=CCSc1nc(NC(=S)Nc2ccc(Br)cc2C(F)(F)F)ns1	2900 nM			
C=CCSc1nsc(NC(=O)Nc2ccc(Cl)cc2)n1	0.191 nM	Non-Toxic	>= 50%	
C=CCSc1nnc(NC(=S)Nc2ccc(Br)cc2)s1	0.147 nM	Non-Toxic	>= 50%	
C=CCNc1nc(NC(=O)Nc2ccc(Cl)c(C(F)(F)F)c2)ns1	0.114 nM	Non-Toxic	>= 50%	
C=CCSc1nc(NC(=O)Nc2ccc(Cl)c(C(F)(F)F)c2)ns1	1000 nM	Non-Toxic	>= 50%	
C=CCSc1nc(NC(=S)Nc2ccc(Cl)cc2)ns1	2600 nM	Non-Toxic	>= 50%	
C=CCSc1nnc(NC(=O)Nc2ccc(Br)cc2)s1	0.144 nM	Non-Toxic	>= 50%	
CCCSc1nnc(NC(=O)Nc2ccc(Cl)c(C(F)(F)F)c2)s1	0.149 nM			
C#CCSc1nsc(NC(=O)Nc2ccc(I)cc2)n1	0.809 nM	Non-Toxic	>= 50%	
C#CCSc1nsc(NC(=S)Nc2ccc(Cl)c(C(F)(F)F)c2)n1	57.4 nM	Non-Toxic	>= 50%	
C=CCSc1nnc(NC(=S)Nc2ccc(Cl)c(C(F)(F)F)c2)s1	0.0977 nM	Non-Toxic	>= 50%	
C=CCSc1nc(NC(=O)Nc2ccc(I)cc2)ns1	1200 nM	Non-Toxic	>= 50%	

SMILES	IC50 (Zika virus [1])	Activity (A549 [2])	Activity (A549 [3])	Ratio IC50 (Zika virus [4])
C=CCSc1nsc(NC(=S)Nc2ccc(Cl)c(C(F)(F)F)c2)n1	4.9 nM	Non-Toxic	>= 50%	
C#CCSc1nsc(NC(=S)Nc2ccc(Br)cc2)n1	706 nM	Non-Toxic	>= 50%	
C=CCSc1nsc(NC(=O)Nc2ccc(Cl)c(C(F)(F)F)c2)n1	0.423 nM	Non-Toxic	>= 50%	
C=CCSc1nsc(NC(=S)Nc2ccc(I)cc2)n1	2600 nM	Non-Toxic	>= 50%	
C=CCSc1nc(NC(=S)Nc2ccc(I)cc2)ns1	2700 nM	Non-Toxic	>= 50%	
C=CCNc1nc(NC(=O)Nc2ccc(Br)cc2)ns1	0.0977 nM	Non-Toxic	>= 50%	
C=CCSc1nnc(NC(=O)Nc2ccc(Cl)c(C(F)(F)F)c2)s1	0.111 nM	Non-Toxic	>= 50%	
C=CCSc1nnc(NC(=S)Nc2ccc(I)cc2)s1	0.156 nM	Non-Toxic	>= 50%	
C#CCSc1nsc(NC(=O)Nc2ccc(Cl)c(C(F)(F)F)c2)n1	0.962 nM	Non-Toxic	>= 50%	
C#CCSc1nsc(NC(=O)Nc2ccc(Br)cc2)n1	0.665 nM	Non-Toxic	>= 50%	
C=CCSc1nsc(NC(=O)Nc2ccc(I)cc2)n1	0.414 nM	Non-Toxic	>= 50%	
C=CCSc1nc(NC(=S)Nc2ccc(Br)cc2)ns1	4100 nM	Non-Toxic	>= 50%	
C=CCSc1nc(NC(=O)Nc2ccc(Br)cc2)ns1	1300 nM	Non-Toxic	>= 50%	
C=CCSc1nsc(NC(=O)Nc2ccc(Br)cc2)n1	0.329 nM	Non-Toxic	>= 50%	
C=CCSc1nnc(NC(=S)Nc2ccc(Br)cc2C(F)(F)F)s1	46.6 nM			
C=CCSc1nnc(NC(=O)Nc2ccc(Cl)cc2)s1	0.191 nM	Non-Toxic	>= 50%	
C=CCSc1nsc(NC(=S)Nc2ccc(Cl)cc2)n1	493 nM	Non-Toxic	>= 50%	
C=CCSc1nnc(NC(=O)Nc2ccc(I)cc2)s1	0.179 nM	Non-Toxic	>= 50%	
